Test results taken from PubChem BioAssay (NCI).
Where “and” joins values, the source holds several entries; their conditions need not be identical. Equal values may be shown once.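 Five compound concentrations were applied to cells in 96-well plates for 48 hours; endpoints were derived by simple linear interpolation of the resulting dose-response curve. The concentration for 50% growth inhibition is given as GI50. TGI is the concentration that stops growth completely.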

Key:
Assay in all cases: growth of human tumour cells (NCI), 48 h
HCT-15 colon = test system: HCT-15 colon
MDA-N = test system: MDA-N
MOLT-4 leukemia = test system: MOLT-4 leukemia
NCI-H23 lung = test system: NCI-H23 lung
OVCAR-3 ovarian = test system: OVCAR-3 ovarian
OVCAR-8 ovarian = test system: OVCAR-8 ovarian
RXF 393 renal = test system: RXF 393 renal
SR leukemia = test system: SR leukemia
SW-620 colon = test system: SW-620 colon
UACC-257 melanoma = test system: UACC-257 melanoma
UACC-62 melanoma = test system: UACC-62 melanoma

SMILES	TGI (HCT-15 colon)	TGI (MDA-N)	TGI (MOLT-4 leukemia)	TGI (NCI-H23 lung)	TGI (OVCAR-3 ovarian)	TGI (OVCAR-8 ovarian)	TGI (RXF 393 renal)	TGI (SR leukemia)	TGI (SW-620 colon)	TGI (UACC-257 melanoma)	TGI (UACC-62 melanoma)	GI50 (RXF 393 renal)
O=C(N(C1=CCCC1)N(c1ccccc1)c1ccccc1)C(F)(F)F	51.8 µM	65.8 µM	76.2 µM	> 100 µM	44.4 µM	> 100 µM	38.8 µM	90.4 µM	66.8 µM	58.9 µM	> 100 µM	
O=C1CSC(c2cc3cc(Br)ccc3nc2Cl)N1c1ccc(F)c(Cl)c1 (stereo not drawn)	> 50 µM	> 50 µM	32.9 µM	> 50 µM	> 50 µM	> 50 µM	> 50 µM	> 50 µM	> 50 µM	> 50 µM	> 50 µM	
CCOC(=O)C1=C(C)N(c2ccc(Cl)cc2)C2(O)C=CC(=O)C3C(=O)N(c4ccccc4)C(=O)C132 (stereo not drawn)	4.37 µM	8.92 µM	3.72 µM	4.75 µM	2.75 µM	6.32 µM	3.31 µM	1.14 µM	3.68 µM	6.76 µM	3.63 µM	
CCOC(=O)/C=C/C(Br)=C(Br)/C=C/C(=O)OCC	10.7 µM	27.3 µM	5.93 µM	30 µM	24.9 µM	21.3 µM	24.9 µM	34.4 µM	5.31 µM	43.5 µM	30.9 µM	
c1ccc(C2C3=C(CCCC3)Nc3nnnn32)cc1 (stereo not drawn)	> 100 µM	> 100 µM	> 100 µM	> 100 µM	> 100 µM	> 100 µM	27.8 µM	> 100 µM	> 100 µM	> 100 µM	> 100 µM	
Cc1cc(=O)oc2c(CN(CCCl)CCCl)c(O)ccc12	> 100 µM	> 100 µM	98.8 µM	> 100 µM	> 100 µM	> 100 µM	> 100 µM	> 100 µM	> 100 µM	> 100 µM	71.2 µM	
COC1OC2COC(c3ccccc3)OC2C(OC(=S)c2ccccc2)C1O (stereo not drawn)	> 100 µM	> 100 µM	> 100 µM	> 100 µM	> 100 µM	39.3 µM	36.9 µM	> 100 µM	> 100 µM	> 100 µM	> 100 µM	
CCN(CC)CCC1(C(=O)OC)SCCc2ccc(C)cc21 (stereo not drawn)	> 100 µM	> 100 µM	> 100 µM	> 100 µM	> 100 µM	> 100 µM	> 100 µM	> 100 µM	> 100 µM	> 100 µM	> 100 µM	
CSC(=N/N=C(\C)c1ccc(S(=O)(=O)N(C)c2ccccc2)cc1)SC	> 100 µM	> 100 µM	> 100 µM	> 100 µM	> 100 µM	> 100 µM	> 100 µM	> 100 µM	> 100 µM	> 100 µM	> 100 µM	
CC(NC1=NCCO1)c1ccco1 (stereo not drawn)	> 100 µM	> 100 µM	> 100 µM	> 100 µM	> 100 µM	> 100 µM	> 100 µM	> 100 µM	> 100 µM	> 100 µM	> 100 µM	
Nc1nn2cc(-c3ccccc3)[n+](CC(=O)c3ccccc3)c2s1	> 100 µM	> 100 µM	51.2 µM	51.6 µM	71.3 µM	> 100 µM	62.4 µM	48 µM	55.9 µM	70.5 µM	> 100 µM	
CC(C)c1cc(C(C)C)c(B(c2ccccc2)c2ccccc2)c(C(C)C)c1Br	> 100 µM	> 100 µM	> 100 µM	> 100 µM	> 100 µM	> 100 µM	> 100 µM	> 100 µM	> 100 µM	> 100 µM	> 100 µM	
CC(C)(CO)Nc1c(O)c2c(c(O)c1Cl)C(=O)C=CC2=O	2.22 µM	2.26 µM	3.3 µM	3.37 µM	2.9 µM	2.71 µM	3.31 µM	0.782 µM	1.37 µM	3.11 µM	2.72 µM	
NC(=O)c1ccc(S(=O)(=NS(=O)(=O)c2ccccc2)c2ccc(C(N)=O)cc2)cc1	> 100 µM	> 100 µM	> 100 µM	> 100 µM	> 100 µM	> 100 µM	> 100 µM	> 100 µM	> 100 µM	> 100 µM	> 100 µM	
CCOC(=O)CCC1(C(=O)O[C@@H]2C[C@H](C)CC[C@H]2C(C)C)CCCCC1=O (stereo partly drawn)	> 100 µM	> 100 µM	> 100 µM	> 100 µM	> 100 µM	> 100 µM	> 100 µM	> 100 µM	> 100 µM	60 µM	> 100 µM	
O=C1CSC2=NC3=C(COC/C3=C\c3ccc(F)cc3)C(c3ccc(F)cc3)N12 (stereo not drawn)	> 100 µM	> 100 µM	> 100 µM	> 100 µM	> 100 µM	> 100 µM	> 100 µM	> 100 µM	> 100 µM	> 100 µM	> 100 µM	
Cn1c(-c2cccs2)cc(-c2ccsc2)c1-c1ccsc1	> 100 µM	> 100 µM	> 100 µM	> 100 µM	> 100 µM	> 100 µM	> 100 µM	> 100 µM	> 100 µM	> 100 µM	> 100 µM	
C/C(=N/NC(=O)c1ccccc1Nc1ccccc1C(=O)N/N=C(\C)c1ccc(C)cc1)c1ccc(C)cc1	> 100 µM	> 100 µM	> 100 µM	> 100 µM	> 100 µM	> 100 µM	> 100 µM	> 100 µM	> 100 µM	> 100 µM	> 100 µM	
Cc1cnc2[nH]c(-c3sccc3C)cc(=O)c2c1	> 100 µM	2.96 µM	> 84.5 µM	> 100 µM	> 100 µM	> 100 µM	> 28.4 µM	> 100 µM	> 100 µM	> 100 µM	> 54.3 µM	
COc1ccc(Cn2nc(OCc3ccccc3)c3cc([N+](=O)[O-])ccc32)cc1	> 100 µM	> 100 µM	> 100 µM	> 100 µM	> 100 µM	> 100 µM	> 100 µM	> 100 µM	> 100 µM	> 100 µM	> 100 µM	
CC1C/C(=C\c2ccc(O)c(O)c2)C(=O)/C(=C/c2ccc(O)c(O)c2)C1 (stereo not drawn)	25.5 µM	15.7 µM	20.3 µM	12.9 µM	18.1 µM	48.7 µM	14.4 µM	14 µM	34.6 µM	28.7 µM	13.6 µM	
Cc1cc(C)c(N)c(CO)c1	> 100 µM	> 100 µM	> 100 µM	> 100 µM	> 100 µM	> 100 µM	> 100 µM	> 100 µM	> 100 µM	> 100 µM	> 90.2 µM	> 100 µM and 32.3 µM
